Reference: US5770591A, “Bis-platinum complexes as chemotherapeutic agents” (The University of Vermont and State Agricultural College, priority 1994, dated 1998)
Where two headings read alike, the source gives them in different places.

How the values were obtained:
[1] = system: tumors; settings: cited from earlier work
[2] = system: DNA; settings: background, cited from earlier work
[3] = system: L-1210/0 murine leukemia cells; test: In vitro cytotoxic activity (ID50, 50% inhibition of cell growth), L-1210/0; format: cell-based; settings: Table II; solvent H2O, 10% DMSO or DMF per complex
[4] = system: L-1210/dach murine leukemia cells; test: In vitro cytotoxic activity (ID50), L-1210/dach; format: cell-based; settings: Table II; solvent H2O, 10% DMSO or DMF per complex
Method: The tests were carried out in vitro according to the procedures outlined by M. P. Hacker et al in Cancer Research, 1985, 45, 4748.

[5] = system: L-1210/DDP murine leukemia cells; test: In vitro cytotoxic activity (ID50), L-1210/DDP (resistant to cisplatin); format: cell-based; settings: Table II; solvent H2O, 10% DMSO or DMF per complex
[6] = system: L-1210/0 murine leukemia cells; test: In vitro cytotoxic activity (ID50, 50% inhibition of cell growth), L-1210/0; format: cell-based; settings: Table III; dissolved in 10% DMSO; read-out: ID50 L-1210/O
Source text: (§1) where py=pyridine; quin=quinoline; isoquin=isoquinoline; Meim=methylimidazole. […] Complexes were all dissolved in 10% DMSO.

[7] = system: L-1210/DDP murine leukemia cells; test: In vitro cytotoxic activity (ID50), L-1210/DDP (resistant to cisplatin); format: cell-based; settings: Table III; dissolved in 10% DMSO
Source text: as §1

[8] = system: L-1210 murine leukemia cell lines
Method: The biological assays were performed as previously described by method of Hacker et al. Cancer Research, 1985, 45, 4748. Complexes were all dissolved in 10% DMSO.

[9] = treatment of patients; cited from earlier work

For `N.N.N.[Cl][Pt+]` [[Pt(NH3)3 Cl]^+], the “Antitumor activity / cytotoxic effect” value ([1]; background) is given as “no cytotoxic effect”, the “Antitumor activity / cytotoxic effect” value ([1]; background, listed as [(Pt(NH3)3 Cl]^+)) is given as “do not exhibit antitumor activity” and the DNA binding [2] is given as “bind avidly to the DNA molecule”. For the same molecule, the “Formation of 1,2-intrastrand crosslink” value [2] was “cannot form the 1,2-intrastrand crosslink” and the DNA binding ([2]; listed as [(Pt(NH3)3 Cl]^+)) was “do bind to DNA”.
Work on `N.N.NCCCCN.[Cl][Pt][Cl].[Cl][Pt][Cl]` [Example 3, [{cis-PtCl2 (NH3)}H2 N(CH2)4 NH2 {trans-PtCl2 (NH3)}]] yielded an IC50 [3] of 760 nM, an IC50 [4] of 2600 nM and an IC50 [5] of 3360 nM.
Work on `N.N.NCCCCN.[Cl][Pt][Cl].[Cl][Pt][Cl]` [BisPt4, [{cis-PtCl2 (NH3)}2 (H2 N(CH2)4 NH2)]] yielded an IC50 [3] of 280 nM, an IC50 [4] of 336 nM and an IC50 [5] of 2190 nM.
For `N.N.[Cl][Pt+2][Cl]` [NH3 NH3 trans, trans-[PtCl2 (NH3)2]], the IC50 [6] is given as > 20000 nM, the IC50 [7] is given as > 50000 nM and the “Antitumor activity / cytotoxic effect” value ([1]; background, listed as trans-DDP) is given as “do not exhibit antitumor activity”. The “Antitumor activity / cytotoxic effect” value ([1]; background, listed as trans-[Pt(NH3)2 Cl2 ]) was “no cytotoxic effect”, the “Formation of 1,2-intrastrand crosslink” value [2] was “cannot form the 1,2-intrastrand crosslink” and the DNA binding ([2]; listed as trans-DDP) was “do bind to DNA”. The DNA binding ([2]; listed as trans-[Pt(NH3)2 Cl2 ]) was “bind avidly to the DNA molecule”.
With `N.N.N.N.NCCCCN.[Cl-].[Cl-].[Cl][Pt+].[Cl][Pt+]` [Example 1, [{trans-PtCl(NH3)2}2 H2 N(CH2)4 NH2]Cl2] the IC50 [3] was 3400 nM, the “Cytotoxic activity (in words)” value [8] was “highly active cytotoxic agents” and the IC50 [4] was 5400 nM. For the same molecule, the IC50 [5] was 900 nM.
`N.N.[Cl][Pt][Cl]` [NH3 NH3 cis, cis-[PtCl2 (NH3)2]] gave an IC50 [6] of 200 nM and an IC50 [7] of 8000 nM.
For `N.N.O=C([O-])C1(C(=O)[O-])CCC1.[Pt+2]` [Carboplatin, [Pt(NH3)2 (CBDCA)]], the “Antitumor activity / cytotoxic effect” value ([1]; background) is given as “effective against the same spectrum of carcinomas as cisplatin” and the Nephrotoxicity [9] is given as “marked reduction in the nephrotoxic effects”.
For [Pt(dien)Cl]Cl, the IC50 [3] was > 20000 nM, the “Cytotoxic activity (in words)” value [8] was “totally inactive” and the IC50 [4] was > 20000 nM. The IC50 [5] was > 20000 nM, the “Antitumor activity / cytotoxic effect” value [1] was “do not exhibit antitumor activity” and the DNA binding [2] was “do bind to DNA”.
With `Cl.Cl.[Pt].c1ccncc1.c1ccncc1` [py py cis] the IC50 [6] was 8960 nM and the IC50 [7] was 12500 nM.
`N.N.NCCCCN.O=C1CC(=O)[O][Pt][O]1.O=C1CC(=O)[O][Pt][O]1` [BisPtmal, [{cis-Pt(mal)(NH3)}2 (H2 N(CH2)4 NH2)]] showed an IC50 [3] of 930 nM, an IC50 [4] of 2550 nM and an IC50 [5] of 5030 nM.
In the case of “[PtCl2 (iso-quinoline)(DMSO)] [iso-quin DMSO trans]”, the IC50 [6] is reported as 2750 nM and the IC50 [7] is reported as 1170 nM.
With “trans-[PtCl2 (pyridine)(DMSO)] [py DMSO trans]” the IC50 [6] was 6620 nM and the IC50 [7] was 5670 nM.
Molecule “[PtCl2 (quinoline)(DMSO)] [quin DMSO trans]” has an IC50 [6] of 400 nM and an IC50 [7] of 1570 nM.
For `[Cl][Pt][Cl].c1ccncc1.c1ccncc1` [py py trans, trans-[PtCl2 (pyridine)2]], the “Cytotoxic activity (in words)” value [8] was “as cytotoxic as cisplatin”, the “Cross-resistance with the parent cisplatin” value ([8]; Table III in vitro data) was “non-cross-resistant with the parent cisplatin” and the IC50 [6] was 610 nM. For the same molecule, the IC50 [7] was 800 nM.
